# Laboratory results: ChEMBL document CHEMBL1152405, “Bis-anthracenyl isoxazolyl amides have enhanced anticancer activity” (Bioorg Med Chem Lett, 2009)
# pIC50: −log10 of the molar value.
# Columns and labels:
# BT-549 = assay: Growth inhibition of human BT549 cells at 10 uM after 24 hrs by MTT assay relative to control; format: functional; design: scale not given: the % may be the effect or the level left
# OVCAR-5 = assay: Growth inhibition of human OVCAR5 cells at 10 uM after 24 hrs by MTT assay relative to control; format: functional; design: scale not given: the % may be the effect or the level left
# SF-539 = assay: Growth inhibition of human SF539 cells at 10 uM after 24 hrs by MTT assay relative to control; format: functional; design: scale not given: the % may be the effect or the level left
# SNB-75 = assay: Growth inhibition of human SNB75 cells at 10 uM after 24 hrs by MTT assay relative to control; format: functional; design: scale not given: the % may be the effect or the level left
# MDA-MB-435 = assay: Growth inhibition of human MDA-MB-435 cells at 10 uM after 24 hrs by MTT assay relative to control; format: functional; design: scale not given: the % may be the effect or the level left
# SF-295 = assay: Growth inhibition of human SF295 cells at 10 uM after 24 hrs by MTT assay relative to control; format: functional; design: scale not given: the % may be the effect or the level left
# NCI/ADR-RES = assay: Growth inhibition of human NCI/ADR-RES cells at 10 uM after 24 hrs by MTT assay relative to control; format: functional; design: scale not given: the % may be the effect or the level left
# HOP-92 = assay: Growth inhibition of human HOP92 cells at 10 uM after 24 hrs by MTT assay relative to control; format: functional; design: scale not given: the % may be the effect or the level left
# SK-MEL-28 = assay: Growth inhibition of human SK-MEL-28 cells at 10 uM after 24 hrs by MTT assay relative to control; format: functional; design: scale not given: the % may be the effect or the level left
# NCI-H23 = assay: Growth inhibition of human NCI-H23 cells at 10 uM after 24 hrs by MTT assay relative to control; format: functional; design: scale not given: the % may be the effect or the level left
# A498 = assay: Growth inhibition of human A498 cells at 10 uM after 24 hrs by MTT assay relative to control; format: functional; design: scale not given: the % may be the effect or the level left
# NCI-H460 = assay: Growth inhibition of human NCI-H460 cells at 10 uM after 24 hrs by MTT assay relative to control; format: functional; design: scale not given: the % may be the effect or the level left
# HCC 2998 = assay: Growth inhibition of human HCC2998 cells at 10 uM after 24 hrs by MTT assay relative to control; format: functional; design: scale not given: the % may be the effect or the level left
# IGROV-1 = assay: Growth inhibition of human IGROV1 cells at 10 uM after 24 hrs by MTT assay relative to control; format: functional; design: scale not given: the % may be the effect or the level left
# SNB-19 [1] = assay: Growth inhibition of human SNB19 cells at 10 uM after 24 hrs by MTT assay relative to control; format: functional; design: scale not given: the % may be the effect or the level left
# DU-145 = assay: Growth inhibition of human DU145 cells at 10 uM after 24 hrs by MTT assay relative to control; format: functional; design: scale not given: the % may be the effect or the level left
# NCI-H322M = assay: Growth inhibition of human NCI-H322M cells at 10 uM after 24 hrs by MTT assay relative to control; format: functional; design: scale not given: the % may be the effect or the level left
# SR = assay: Growth inhibition of human SR cells at 10 uM after 24 hrs by MTT assay relative to control; format: functional; design: scale not given: the % may be the effect or the level left
# HT-29 = assay: Growth inhibition of human HT-29 cells at 10 uM after 24 hrs by MTT assay relative to control; format: functional; design: scale not given: the % may be the effect or the level left
# SK-OV-3 = assay: Growth inhibition of human SKOV3 cells at 10 uM after 24 hrs by MTT assay relative to control; format: functional; design: scale not given: the % may be the effect or the level left
# UO-31 = assay: Growth inhibition of human UO31 cells at 10 uM after 24 hrs by MTT assay relative to control; format: functional; design: scale not given: the % may be the effect or the level left
# HL-60(TB) = assay: Growth inhibition of human HL-60(TB) cells at 10 uM after 24 hrs by MTT assay relative to control; format: functional; design: scale not given: the % may be the effect or the level left
# CAKI-1 = assay: Growth inhibition of human Caki1 cells at 10 uM after 24 hrs by MTT assay relative to control; format: functional; design: scale not given: the % may be the effect or the level left
# EKVX = assay: Growth inhibition of human EKVX cells at 10 uM after 24 hrs by MTT assay relative to control; format: functional; design: scale not given: the % may be the effect or the level left
# SK-MEL-2 = assay: Growth inhibition of human SK-MEL-2 cells at 10 uM after 24 hrs by MTT assay relative to control; format: functional; design: scale not given: the % may be the effect or the level left
# OVCAR-8 = assay: Growth inhibition of human OVCAR8 cells at 10 uM after 24 hrs by MTT assay relative to control; format: functional; design: scale not given: the % may be the effect or the level left
# MDA-MB-231 = assay: Growth inhibition of human MDA-MB-231 cells at 10 uM after 24 hrs by MTT assay relative to control; format: functional; design: scale not given: the % may be the effect or the level left
# UACC-257 = assay: Growth inhibition of human UACC257 cells at 10 uM after 24 hrs by MTT assay relative to control; format: functional; design: scale not given: the % may be the effect or the level left
# SNB-19 [2] = assay: Antitumor activity against human SNB19 cells after 24 hrs; format: functional, cell-based; details: SNB-19, 24 h
# K562 = assay: Growth inhibition of human K562 cells at 10 uM after 24 hrs by MTT assay relative to control; format: functional; design: scale not given: the % may be the effect or the level left
# Malme-3M = assay: Growth inhibition of human MALME-3M cells at 10 uM after 24 hrs by MTT assay relative to control; format: functional; design: scale not given: the % may be the effect or the level left
# HCT-116 = assay: Growth inhibition of human HCT116 cells at 10 uM after 24 hrs by MTT assay relative to control; format: functional; design: scale not given: the % may be the effect or the level left
# KM12 = assay: Growth inhibition of human KM12 cells at 10 uM after 24 hrs by MTT assay relative to control; format: functional; design: scale not given: the % may be the effect or the level left
# OVCAR-3 = assay: Growth inhibition of human OVCAR-3 cells at 10 uM after 24 hrs by MTT assay relative to control; format: functional; design: scale not given: the % may be the effect or the level left
# MCF7 = assay: Growth inhibition of human MCF7 cells at 10 uM after 24 hrs by MTT assay relative to control; format: functional; design: scale not given: the % may be the effect or the level left
# UACC-62 = assay: Growth inhibition of human UACC62 cells at 10 uM after 24 hrs by MTT assay relative to control; format: functional; design: scale not given: the % may be the effect or the level left
# PC-3 = assay: Growth inhibition of human PC3 cells at 10 uM after 24 hrs by MTT assay relative to control; format: functional; design: scale not given: the % may be the effect or the level left
# OVCAR-4 = assay: Growth inhibition of human OVCAR4 cells at 10 uM after 24 hrs by MTT assay relative to control; format: functional; design: scale not given: the % may be the effect or the level left
# U-251 = assay: Growth inhibition of human U251 cells at 10 uM after 24 hrs by MTT assay relative to control; format: functional; design: scale not given: the % may be the effect or the level left
# MOLT-4 = assay: Growth inhibition of human MOLT4 cells at 10 uM after 24 hrs by MTT assay relative to control; format: functional; design: scale not given: the % may be the effect or the level left
# SW-620 = assay: Growth inhibition of human SW620 cells at 10 uM after 24 hrs by MTT assay relative to control; format: functional; design: scale not given: the % may be the effect or the level left
# M14 = assay: Growth inhibition of human M14 cells at 10 uM after 24 hrs by MTT assay relative to control; format: functional; design: scale not given: the % may be the effect or the level left
# MDA-MB-468 = assay: Growth inhibition of human MDA-MB-468 cells at 10 uM after 24 hrs by MTT assay relative to control; format: functional; design: scale not given: the % may be the effect or the level left
# SK-MEL-5 = assay: Growth inhibition of human SK-MEL-5 cells at 10 uM after 24 hrs by MTT assay relative to control; format: functional; design: scale not given: the % may be the effect or the level left
# SF-268 = assay: Growth inhibition of human SF268 cells at 10 uM after 24 hrs by MTT assay relative to control; format: functional; design: scale not given: the % may be the effect or the level left
# LOX IMVI = assay: Growth inhibition of human LOXIMVI cells at 10 uM after 24 hrs by MTT assay relative to control; format: functional; design: scale not given: the % may be the effect or the level left
# TK-10 = assay: Growth inhibition of human TK10 cells at 10 uM after 24 hrs by MTT assay relative to control; format: functional; design: scale not given: the % may be the effect or the level left
# A549 = assay: Growth inhibition of human A549 cells at 10 uM after 24 hrs by MTT assay relative to control; format: functional; design: scale not given: the % may be the effect or the level left
# 786-0 = assay: Growth inhibition of human 786-0 cells at 10 uM after 24 hrs by MTT assay relative to control; format: functional; design: scale not given: the % may be the effect or the level left
# [3] = Growth inhibition of human Hs 578T cells at 10 uM after 24 hrs by MTT assay relative to control; format: functional; design: scale not given: the % may be the effect or the level left
# COLO 205 = assay: Growth inhibition of human COLO205 cells at 10 uM after 24 hrs by MTT assay relative to control; format: functional; design: scale not given: the % may be the effect or the level left
# HOP-62 = assay: Growth inhibition of human HOP62 cells at 10 uM after 24 hrs by MTT assay relative to control; format: functional; design: scale not given: the % may be the effect or the level left
# ACHN = assay: Growth inhibition of human ACHN cells at 10 uM after 24 hrs by MTT assay relative to control; format: functional; design: scale not given: the % may be the effect or the level left
# SN12C = assay: Growth inhibition of human SN12C cells at 10 uM after 24 hrs by MTT assay relative to control; format: functional; design: scale not given: the % may be the effect or the level left
# T47D = assay: Growth inhibition of human T47D cells at 10 uM after 24 hrs by MTT assay relative to control; format: functional; design: scale not given: the % may be the effect or the level left
# NCI-H522 = assay: Growth inhibition of human NCI-H522 cells at 10 uM after 24 hrs by MTT assay relative to control; format: functional; design: scale not given: the % may be the effect or the level left
# HCT-15 = assay: Growth inhibition of human HCT15 cells at 10 uM after 24 hrs by MTT assay relative to control; format: functional; design: scale not given: the % may be the effect or the level left
# [4] = Growth inhibition of human […] cells at 10 uM after 24 hrs by MTT assay relative to control; format: functional; design: scale not given: the % may be the effect or the level left
# CCRF-CEM = assay: Growth inhibition of human CCRF-CEM cells at 10 uM after 24 hrs by MTT assay relative to control; format: functional; design: scale not given: the % may be the effect or the level left
smiles,measurement,setting,value
Cc1onc(-c2c3ccccc3c(Cl)c3ccccc23)c1C(=O)Nc1cc(C(=O)NCCCNC(=O)c2cc(NC(=O)c3c(-c4c5ccccc5c(Cl)c5ccccc45)noc3C)cn2C)n(C)c1,Activity,BT-549,126.28%
same,Activity,OVCAR-5,95.22%
same,Activity,SF-539,91.99%
same,Activity,SNB-75,33.5%
same,Activity,MDA-MB-435,85.56%
same,Activity,SF-295,109.86%
same,Activity,NCI/ADR-RES,103.72%
same,Activity,HOP-92,66.96%
same,Activity,SK-MEL-28,116.55%
same,Activity,NCI-H23,105.33%
same,Activity,A498,118.2%
same,Activity,NCI-H460,101.62%
same,Activity,HCC 2998,130.16%
same,Activity,IGROV-1,64.38%
same,Activity,SNB-19 [1],74.84%
same,Activity,DU-145,103.19%
same,Activity,NCI-H322M,105.3%
same,Activity,SR,87.99%
same,Activity,HT-29,93.17%
same,Activity,SK-OV-3,100.87%
same,Activity,UO-31,60.64%
same,Activity,HL-60(TB),160.8%
same,Activity,CAKI-1,71.63%
same,Activity,EKVX,92.34%
same,Activity,SK-MEL-2,102.24%
same,Activity,OVCAR-8,88.63%
same,Activity,MDA-MB-231,86.9%
same,Activity,UACC-257,86.93%
same,pIC50,SNB-19 [2],< 4.00
same,Activity,K562,98.76%
same,Activity,Malme-3M,94.79%
same,Activity,HCT-116,88.45%
same,Activity,KM12,96.11%
same,Activity,OVCAR-3,88.29%
same,Activity,MCF7,94.12%
same,Activity,UACC-62,76.22%
same,Activity,PC-3,76.05%
same,Activity,OVCAR-4,67.84%
same,Activity,U-251,80.63%
same,Activity,MOLT-4,91.53%
same,Activity,SW-620,109.27%
same,Activity,M14,80.43%
same,Activity,MDA-MB-468,92.57%
same,Activity,SK-MEL-5,104%
same,Activity,SF-268,72.67%
same,Activity,LOX IMVI,82.59%
same,Activity,TK-10,107.71%
same,Activity,A549,86.45%
same,Activity,786-0,81.38%
same,Activity,[3],88.87%
same,Activity,COLO 205,76.5%
same,Activity,HOP-62,87.7%
same,Activity,ACHN,79.36%
same,Activity,SN12C,106.37%
same,Activity,T47D,76.21%
same,Activity,NCI-H522,76.93%
same,Activity,HCT-15,102.58%
same,Activity,[4],78.11%
same,Activity,CCRF-CEM,84.24%
